Reference: PubChem BioAssay AID1508591

Conditions: rat; liver microsomes; pH 7.4; 15.0 min; 1.0 µM

| SMILES | half-life |
| --- | --- |
| O=C(COc1ccccc1)NCC(c1cccs1)S(=O)(=O)c1ccc(Cl)cc1 (centres undefined) | 1.44 min |
| Nc1c(-c2ccncc2)cc[nH]c1=O | > 30 min |
| O=C([C@@H]1CCCN(c2ccc3[nH]c(C4(n5cc(Cl)cn5)CC4)nc3n2)C1)N1CCCC1 | > 30 min |
| C#CCNC(=O)c1nc(-c2ccc(Cl)nc2)c2ccccn12 | 24 min |
| CCC(=O)NC(c1cccs1)c1cc([N+](=O)[O-])c2cccnc2c1O (centres undefined) | > 30 min |
| Cn1nnnc1Sc1ncnc2sccc12 | > 30 min |
| O=C1Nc2ccc(I)cc2C1=Cc1cc(Br)c(O)c(Br)c1 | > 30 min |
| CC(C)(C)C1CCc2c(sc(NC(=O)c3ccncc3)c2C(N)=O)C1 (centres undefined) | > 30 min |
| COC(=O)C1=COC(C)C2CN3CCc4c([nH]c5cc(OC)c(OC)cc45)C3CC12 (centres undefined) | 26.3 min |
| CCOc1ccc(CCNC(=O)c2cc3cnccc3n2Cc2cccc(C)n2)cc1OCC | 29 min |
| CCN1CCCC1CNC(=O)c1cc(S(=O)(=O)CC)c(N)cc1OC (centres undefined) | > 30 min |
| CCCSc1nc(N[C@@H]2C[C@H]2c2ccc(F)c(F)c2)c2nnn([C@@H]3C[C@H](OCCO)[C@@H](O)[C@H]3O)c2n1 | > 30 min |
| COc1c(O)ccc2c1CN1CCc3cc4c(cc3[C@@H]1C2)OCO4 | 18.9 min |
| CCOC(=O)c1ccc(NC(=O)N2Cc3[nH]cnc3C[C@H]2c2nc(C(C)C)no2)cc1 | 6.65 min |
| CCOC(=O)c1cc(C)sc1NC(=O)c1ccc(Cl)s1 | 5.49 min |
| O=C(Nc1ccc(Br)cc1)c1ccc(F)c(S(=O)(=O)NC2CCCCCC2)c1 | 3.66 min |
| COC(=O)CNC(=O)c1nc(-c2ccc([S+](C)(=O)[O-])cc2)c2cnccn12 | > 30 min |

| SMILES | half-life |
| --- | --- |
| C=CCc1ccc(O)c(-c2ccc(O)c(CC=C)c2)c1 | 2.36 min |
| O=C1Cc2cc(C(=O)c3ccco3)ccc2N1 | 20 min |
| Cc1c(O)ccc2c1OC(C)(C)CC2 | 3.9 min |
| COc1ccc(-c2ccc3nc(-c4cc(F)ccc4F)oc3c2)c(OC)c1OC | > 30 min |
| CS(=O)(=O)c1ccc(-c2cnc(NCc3ccco3)n3cnnc23)cc1 | > 30 min |
| CC(=O)c1c(C)[nH]c(C(=O)Nc2cccc([S+](=O)([O-])Nc3ccc(C#N)cc3)c2)c1C | > 30 min |
| O=S(=O)(Nc1nccs1)c1ccc(NCc2cccc3cc[nH]c23)cc1 | > 30 min |
| c1cc(-c2cc(-c3ccncc3)c3cncn3c2)c2[nH]ccc2c1 | 7.16 min |
| CSc1ncc(Cl)c(C(=O)Nc2c(C)cccc2C)n1 | 5.48 min |
| CCOc1ccc(CCNC(=O)c2cc3ccccc3n2Cc2cccc(C)c2)cc1OCC | 1.6 min |
| CCOC(=O)C1=C(C)NC(=O)CC1C(=O)Nc1cc(Cl)cc(Cl)c1 (centres undefined) | 6.1 min |
| COc1ccc(CCn2c(N)cc(=O)[nH]c2=S)cc1OC | > 30 min |
| CN(C)C(=O)c1nc(-c2ccc(S(C)(=O)=O)cc2)c2cnccn12 | > 30 min |
| CCCNC(=O)[C@H]1O[C@H]1C(=O)N[C@H](C(=O)N1CCC[C@@H]1C(=O)OC)C(C)CC (some centres undefined) | > 30 min |
| CC1=C(C(=O)NC2CCCC2)C(c2nn(C)cc2Cl)N=C(Nc2nc3ccccc3o2)N1 (centres undefined) | 2.7 min |
| Cc1nc([C@](C)(O)CO)sc1-c1cnc(N)c(O[C@H](C)c2cc(F)ccc2-n2nccn2)c1 | 22.6 min |

The next lines start with the values.

| half-life | SMILES |
| --- | --- |
| > 30 min | FC(F)(F)c1ccc(N2CCN(C(=S)Nc3ccccn3)CC2)cc1 |
| 26.2 min | Cn1nc(-c2ccccc2F)c2cc(C(=O)Nc3cc(F)ccc3F)sc21 |
| 3.52 min | CCOc1ccc(CN2C(=O)c3ccccc3Sc3ccc(C(=O)NC4CCC(C)CC4)cc32)cc1 (centres undefined) |
| 5.07 min | COc1ccc(C(=O)c2sc(Nc3cccc(Cl)c3)nc2N)cc1 |
| 25.7 min | COc1ccc(C2c3[nH]c4ccc(OC)cc4c3CCN2C(=O)Nc2ccccc2)cc1 (centres undefined) |
| 1.7 min | COc1cccc(CNC(=O)c2ccc(N3CCCC3)c(NC(=O)Nc3ccccc3F)c2)c1 |
| 25 min | Fc1ccc(-c2ccc(Nc3nc(-c4ccncc4)nc4ccccc34)cc2F)c(Cl)c1 |
| 0.97 min | COCCNC(=O)[C@H]1C[C@H](Oc2ccccc2)CN1Cc1ccc2[nH]ccc2c1 |
| > 30 min | O=C(O)CCNc1cc(N2CCc3ccccc3CC2)nc(-c2cccnc2)n1 |
| 16 min | COc1cc([C@@H](CC(=O)O)c2ccc(C)c(CN3C[C@@H](C)Oc4ccccc4S3(=O)=O)c2)cc2nnn(C)c12 |
| 8.7 min | CCOC(=O)N1CCN(Cc2nc3c(c(=O)n(C)c(=O)n3C)n2Cc2ccc(F)cc2)CC1 |
| 4.72 min | NC(=O)C1CCN(c2nc(-c3cccc4ccccc34)cs2)CC1 |
| 1.68 min | CC(C)c1ccc(OCc2nc3c(n2Cc2ccccc2)C(=O)N(CC2CCOCC2)CCN3)cc1 |
| 4.77 min | COCCNS(=O)(=O)c1cc(-c2nn3c(C)nnc3c3ccccc23)ccc1C |
| > 30 min | Cc1cccc(-c2[nH]c(C(C)(C)C)nc2-c2ccc3nccnc3c2)n1 |
| 19 min | CCOC(=O)c1cnc2ccc(-c3cncc(NS(=O)(=O)c4ccccc4)c3)cn12 |
| > 30 min | Cc1ccc2nc(-c3cc(NC(=O)c4ccc5c(c4)OCCO5)ccc3Cl)oc2c1 |
| 5.72 min | COc1ccc(Nc2nnc(-c3ccc(C)c(S(=O)(=O)NCc4nc5ccccc5[nH]4)c3)c3ccccc23)cc1 |
| 26 min | Cc1cc(NC(=S)N2CCN(c3cccc(C(F)(F)F)c3)CC2)nc2ccccc12 |
| 10.2 min | Cc1nc(N2CCN(c3ccccn3)CC2)c2c(C)c(C(=O)Nc3ccc(F)cc3Cl)sc2n1 |
| 10.9 min | Nc1ncnc2c1c(-c1ccc(Oc3ccccc3)cc1)cn2C1CCCC1 |

| half-life | SMILES |
| --- | --- |
| 1.67 min | Cc1ccccc1C(C(=O)NC1CCCC1)N(C(=O)Cn1cnc2ccccc21)c1cccc(F)c1 (centres undefined) |
| 27.3 min | COc1ccc2c(c1)CCc1c-2n[nH]c1C(=O)N1CCc2c(nc3cc(-c4ccccc4)[nH]n3c2=O)C1 |
| 2.1 min | CCCCCNc1oc(-c2cccc3ccccc23)nc1C#N |
| 3 min | COC(=O)c1ccccc1C(=O)Nc1nc(-c2ccccc2)cs1 |
| 4.83 min | CN1C(=O)C(=O)N2C(=C[C@]3(c4c[nH]c5ccccc45)c4ccccc4N[C@H]23)C1=O |
| 3.16 min | CCOc1ccc(NC(=O)c2cccc(-n3cccc3)c2)cc1S(=O)(=O)N1CCOCC1 |
| > 30 min | CC[C@H](NC(=O)c1c(O)c(-c2ccccc2)nc2ccccc12)c1ccccc1 |
| 11.6 min | Cc1cc(NS(=O)(=O)c2ccc3c(c2)CCC(=O)N3)ccc1F |
| 12 min | Cc1ccc(-c2cc(C(=O)Nc3cccc(S(N)(=O)=O)c3)c3ccccc3n2)cc1C |
| > 30 min | NC(=O)COc1ccc(C2CC(=O)Nc3n[nH]c(Nc4ccccc4)c32)cc1 (centres undefined) |
| > 30 min | NC(=O)C1CCN(c2nc(-c3cccc4sc5ccccc5c34)cs2)CC1 |
| 1.6 min | CCOc1ccc(CCNC(=O)c2cc3ccccc3o2)cc1OCC |
| > 30 min | CCN1CCN(C(=O)c2cc(-c3ccc(F)cc3)c3nncn3n2)CC1 |
| 5.8 min | COc1cccc(CNc2ccc(S(=O)(=O)Nc3cccc4ccccc34)cc2)c1O |
| 9.55 min | Cc1ccc2oc3c(c(=O)c2c1)C(c1cccc(O)c1)N(CCCN1CCOCC1)C3=O (centres undefined) |
| > 30 min | O=C(Nc1nc2cc(C(F)(F)F)ccc2s1)c1ccc(-c2cccc([N+](=O)[O-])c2)o1 |
| 1.56 min | CC1CC(C)(C)N(C(=O)CN2C(=O)c3ccccc3C2=O)c2ccccc21 (centres undefined) |
| > 30 min | O=c1c2ccccc2nc2n1CCC2 |
| 14 min | CC(C)(O)Cn1c(NC(=O)c2ccc(-c3cn[nH]c3)s2)nc2cc(CN3CCOCC3)ccc21 |
| 1.74 min | c1ccc(Nc2cc3c(cn2)CN(Cc2ccsc2)CCN3)cc1 |
